Reference: the supplement of paper PMC10307832

How the values were obtained:
Experiment in all cases: relative viability (nuclei count vs DMSO), 5 days (fraction); higher = more cells survive
Sulindac + Alpelisib = compound: CC1=C(CC(=O)O)c2cc(F)ccc2/C1=C\c1ccc([S+](C)[O-])cc1 [Sulindac] + Cc1nc(NC(=O)N2CCC[C@H]2C(N)=O)sc1-c1ccnc(C(C)(C)C(F)(F)F)c1 [Alpelisib] (partner 2 µM)
Outline: (§1)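 Lung cancer cell lines in 1536-well plates were dosed by pin tool the day after seeding, either with one drug alone or with a fixed anchor-drug dose plus five library-drug doses (not always all listed) in √10 steps. After 5 days, cells were fixed and their nuclei stained in one step (final 0.05% Triton X-100, 1% formaldehyde, 1 ug/ml Hoechst), then counted on 4× images. Relative viability is the nuclei count in treated wells divided by that in vehicle wells. Values are medians of duplicate plates.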

[1] = compound: CN[C@@H]1C[C@H]2O[C@@](C)([C@@H]1OC)n1c3ccccc3c3c4c(c5c6ccccc6n2c5c31)C(=O)NC4 [Staurosporine] + CC(=O)Nc1cccc(-n2c(=O)n(C3CC3)c(=O)c3c(Nc4ccc(I)cc4F)n(C)c(=O)c(C)c32)c1 [Trametinib] (partner 0.02 µM)
Outline: as §1

[2] = compound: CN[C@@H]1C[C@H]2O[C@@](C)([C@@H]1OC)n1c3ccccc3c3c4c(c5c6ccccc6n2c5c31)C(=O)NC4 [Staurosporine] + O=C(CCCCCCC(=O)Nc1ccccc1)NO [Vorinostat] (partner 1 µM)
Outline: as §1

[3] = compound: O=c1[nH]cc(F)c(=O)[nH]1 [5-Fluorouracil] + Cc1nc(Nc2ncc(C(=O)Nc3c(C)cccc3Cl)s2)cc(N2CCN(CCO)CC2)n1 [Dasatinib] (partner 0.075 µM)
Outline: as §1

Cell Line	relative viability (Sulindac + Alpelisib; first compound 0.253 µM)	relative viability (Sulindac + Alpelisib; first compound 0.8 µM)	relative viability (Sulindac + Alpelisib; first compound 2.53 µM)	relative viability (Sulindac + Alpelisib; first compound 8 µM)	relative viability ([1]; first compound 0.005 µM)	relative viability ([1]; first compound 0.01581 µM)	relative viability ([1]; first compound 0.05 µM)	relative viability ([1]; first compound 0.1581 µM)	relative viability ([1]; first compound 0.5 µM)	relative viability ([2]; first compound 0.005 µM)	relative viability ([2]; first compound 0.01581 µM)	relative viability ([2]; first compound 0.05 µM)	relative viability ([2]; first compound 0.1581 µM)	relative viability ([2]; first compound 0.5 µM)	relative viability ([3]; first compound 0.02 µM)	relative viability ([3]; first compound 0.2 µM)	relative viability ([3]; first compound 0.6325 µM)	relative viability ([3]; first compound 2 µM)	relative viability (Sulindac + Alpelisib; first compound 0.08 µM)
CAL-12T	1.37	0.999	1.31	1.54	0.19	0.145	0.0965	0.126	0.083	0.415	0.231	0.165	0.129	0.112	0.403	0.371	0.282	0.261	
PC-3 [JPC-3]	1.03	0.95	1.08	1.04	0.704	0.543	0.453	0.391	0.332	0.351	0.306	0.396	0.297	0.376	0.979	1.08	0.946	0.709	1.18
NCI-H23	0.78	0.636	0.658	0.859	0.315	0.165	0.172	0.0936	0.119	0.506	0.0921	0.0962	0.143	0.101	0.789	0.991	0.475	0.278	0.763
NCI-H838	0.983	0.769	0.975	1.08	0.174	0.145	0.208	0.0937	0.0589	0.36	0.217	0.142	0.171		0.293	0.291	0.243	0.27	1.22
HCC-366	0.471	0.407	0.527	0.622	0.242		0.0839	0.0291	0.0289	0.331		0.0353	0.0261	0.0187	0.559	0.61	0.249	0.0872	0.527
NCI-H1666	1.09	0.808	0.866	0.99	0.785	0.573	0.635	0.513	0.456	0.938	0.824	0.801	0.593	0.446	0.848	0.555	0.4	0.391	
A-427	1.08	0.534	1.09	1.11	0.521	0.439	0.247	0.121	0.117	0.572	0.333	0.43	0.161	0.152	0.562	0.764	0.618	0.353	1.03
NCI-H460	0.492		0.477	0.709	0.0592	0.0305	0.0206	0.0114	0.0063		0.179	0.0234	0.0138	0.0076	0.584	0.488	0.159	0.0618	0.82
NCI-H441	0.713	0.642	0.888	0.917	0.373	0.186	0.168	0.133	0.0933	0.458	0.327	0.232	0.144	0.114	0.748	0.63	0.49	0.278	0.724
LK-2	1.14			1.38	0.906	0.781	0.701	0.669	0.333	0.19	0.0826	0.246	0.0977	0.0667	0.42	0.29	0.256	0.237	1.42
NCI-H2085	0.963	0.935	1.02	0.922	0.313	0.208	0.293	0.215	0.197	0.58	0.296	0.407	0.229	0.183	0.192	0.218	0.21	0.301	1.02
NCI-H650	1.1	0.578	1.02	1.17	1.07	0.383	0.27	0.222	0.151	0.32	0.162	0.234	0.181	0.151	0.444	0.341	0.287	0.336	1.05
SK-MES-1	1.05	0.601	0.815	0.982	0.333	0.281	0.265	0.211	0.139	0.47	0.27	0.18	0.154	0.127	0.293	0.257	0.227	0.218	1.06
NCI-H1793	0.78	0.587	0.857	0.804	0.472		0.359	0.168	0.169	0.635		0.164	0.11	0.0792	0.378	0.413	0.368	0.313	0.744
NCI-H3122	0.722	0.699	0.756	0.941	0.368		0.648		0.221	1.04		0.549		0.131	0.917	0.76	0.32	0.205	0.639
LCLC-103H	1.07	0.892	0.869	1.09	0.685	0.472	0.445	0.331	0.332	0.545	0.16	0.251	0.211	0.198	0.493	0.417	0.326	0.251	1.06
NCI-H596	0.532	0.551	0.478	0.485	0.753	0.494	0.275	0.184	0.173	0.59	0.424	0.258	0.192	0.126	0.717	0.605	0.48	0.366	0.554
